Laboratory results: US20260159536A1, “AKR1C3-ACTIVATED DNA ALKYLATING AGENT, AND MEDICAL APPLICATION THEREOF” (ASCENTAWITS PHARMACEUTICALS, LTD., priority 2021, published 2026)

Test system: HuPrime model LU2505 human lung cancer
Assay: In vivo pharmacodynamics, lung cancer LU2505 PDX model
Set-up: species or system BALB/c nude mice
Details: for Tumor volume (x ± S): in mm³ (unit assumed)

Q: What does the source list for `O=[N+]([O-])c1ccc(C(OP(=O)(N2CC2)N2CC2)C(F)(F)F)cc1Oc1ccc(-c2ccc(F)cc2)c(F)c1` (racemic) [Compound A]?
A: Relative tumor volume (x ± S) (1.25 mg/kg i.v. QWx3, Day 28): 4.61 ± 1.57; T/C (%) (1.25 mg/kg i.v. QWx3, Day 28): 43.14%; TGI (%) (1.25 mg/kg i.v. QWx3, Day 28): 56.86%; Tumor volume (x ± S) (1.25 mg/kg i.v. QWx3, Day 28): 485.95 ± 175.25; Tumor volume (1.25 mg/kg i.v., Day 0): 103.28 mm^3; Tumor volume (1.25 mg/kg i.v., Day 4): 156.32 mm^3; Tumor volume (1.25 mg/kg i.v., Day 7): 231.55 mm^3; Tumor volume (1.25 mg/kg i.v., Day 11): 242.12 mm^3; Tumor volume (1.25 mg/kg i.v., Day 14): 291.72 mm^3; Tumor volume (1.25 mg/kg i.v., Day 18): 383.24 mm^3; Tumor volume (1.25 mg/kg i.v., Day 21): 434.92 mm^3; Tumor volume (1.25 mg/kg i.v., Day 25): 478.15 mm^3; Tumor volume (1.25 mg/kg i.v., Day 28): 485.95 mm^3; Relative tumor volume (x ± S) (2.5 mg/kg i.v. QWx3, Day 28): 1.11 ± 0.56; T/C (%) (2.5 mg/kg i.v. QWx3, Day 28): 10.43%; TGI (%) (2.5 mg/kg i.v. QWx3, Day 28): 89.57%; Tumor volume (x ± S) (2.5 mg/kg i.v. QWx3, Day 28): 102.06 ± 47.51; Tumor volume (2.5 mg/kg i.v., Day 0): 103.26 mm^3; Tumor volume (2.5 mg/kg i.v., Day 4): 149.02 mm^3; Tumor volume (2.5 mg/kg i.v., Day 7): 131.34 mm^3; Tumor volume (2.5 mg/kg i.v., Day 11): 109.62 mm^3; Tumor volume (2.5 mg/kg i.v., Day 14): 116.57 mm^3; Tumor volume (2.5 mg/kg i.v., Day 18): 113.09 mm^3; Tumor volume (2.5 mg/kg i.v., Day 21): 103.18 mm^3; Tumor volume (2.5 mg/kg i.v., Day 25): 92.38 mm^3; Tumor volume (2.5 mg/kg i.v., Day 28): 102.06 mm^3; Relative tumor volume (x ± S) (5 mg/kg i.v. QWx3, Day 28): 0.17 ± 0.07; T/C (%) (5 mg/kg i.v. QWx3, Day 28): 1.60%; TGI (%) (5 mg/kg i.v. QWx3, Day 28): 98.40%; Tumor volume (x ± S) (5 mg/kg i.v. QWx3, Day 28): 19.00 ± 8.08; Tumor volume (5 mg/kg i.v., Day 0): 103.23 mm^3; Tumor volume (5 mg/kg i.v., Day 4): 139.41 mm^3; Tumor volume (5 mg/kg i.v., Day 7): 111.31 mm^3; Tumor volume (5 mg/kg i.v., Day 11): 62.41 mm^3; Tumor volume (5 mg/kg i.v., Day 14): 42.40 mm^3; Tumor volume (5 mg/kg i.v., Day 18): 34.32 mm^3; Tumor volume (5 mg/kg i.v., Day 21): 30.63 mm^3; Tumor volume (5 mg/kg i.v., Day 25): 20.52 mm^3; Tumor volume (5 mg/kg i.v., Day 28): 19.00 mm^3; toxic side effects (body weight change) (1.25, 2.5, 5 mg/kg i.v. QWx3): without toxic side effects
